Here are results for 13 compounds from patent US8980254B2, “Formulation for oral administration of proteins” (Alvine Pharmaceuticals, Inc., priority 2008, dated 2015).

Entries after “also recorded” stand apart in the source; their conditions may differ.

Common to all, as to assay type: biochemical, barley
Assay [1] deals with T1, ALV001 (Hordeum vulgare, UniProt P25250). Kind of assay: Restoration of ALV001 activity by agents added after 15 minutes incubation in postprandial gastric fluid. Set-up: ALV001 is the proenzyme or zymogen for Endoprotease B (Isoform 2); made in house. The conditions noted are these: agent at 5 mM added after 15 minutes at 37° C. in postprandial gastric fluid; 1.5-40 minutes after addition. The protocol: ALV001 was added to postprandial gastric fluid and incubated for 15 minutes at 37° C. Reducing agents were added at 5 mM to the gastric fluid and then samples were taken to examine ALV001 activity at 1.5, 5, 10, 20, and 40 minutes after the addition of the reducing agents.
Target sequence in this assay (P25250 29-373 limits assumed): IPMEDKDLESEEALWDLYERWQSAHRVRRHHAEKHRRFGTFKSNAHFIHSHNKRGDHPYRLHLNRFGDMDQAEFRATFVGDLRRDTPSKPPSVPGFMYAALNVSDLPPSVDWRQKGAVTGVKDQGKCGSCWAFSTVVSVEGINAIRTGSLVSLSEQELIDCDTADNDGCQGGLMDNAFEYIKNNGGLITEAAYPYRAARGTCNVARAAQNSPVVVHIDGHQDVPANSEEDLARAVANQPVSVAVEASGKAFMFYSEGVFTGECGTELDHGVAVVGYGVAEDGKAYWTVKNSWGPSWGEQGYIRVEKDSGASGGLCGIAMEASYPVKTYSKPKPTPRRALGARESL

The target in assay [2] is T1, ALV001. Kind of assay: Stabilization of ALV001 in ex vivo postprandial gastric fluid by added antioxidants/reducing/chelating agents (chromogenic activity). Set-up: ALV001 is the proenzyme or zymogen for Endoprotease B (Isoform 2); made in house. The note with it: for stability of ALV001 in postprandial gastric fluid (FIG. 7): agent at 0.5 mM; for stabilization of ALV001 (FIG. 11): ALV001 at 0.12 mg/ml, 1.5-40 minutes.
Target sequence in this assay (P25250 29-373 limits assumed): as above

The target of assay [3] is T1, ALV001. Kind of assay: Stabilization of ALV001* in early postprandial gastric fluid by reducing agents. Set-up: ALV001*(the active form of ALV001) is produced upon proteolytic cleavage of ALV001; made in house. The protocol:
(§1) Frozen human postprandial gastric fluids were thawed and centrifuged at 21,000 g for 5 minutes to pellet insoluble material, and the supernatant was used for this example. Between 50 and 200 μl of gastric fluid were added to the wells of a 96-well plate and incubated at 37° C. When antioxidants were added, they were added at this step. […] At the specified sampling time, a 1.6 μl sample of gastric fluid was diluted in assay buffer to give a final volume of 280 μl, and the concentration was measured by a chromogenic activity assay using Z-Phe-Arg-p-nitroaniline (pNA) as the substrate. The method is based on the ability of pNA to absorb at 410 nm when released from the substrate. ALV001 is the proenzyme or zymogen for Endoprotease B (Isoform 2) that cleaves the C-terminal side of the arginine in the sequence Phe-Arg. Enzymatic cleavage and subsequent release of pNA may be monitored by the change in absorbance at 410 nm. To determine the reaction rate, the absorbance at 410 nm was measured every 10 seconds for 1 minute. The slope of the regression line divided by the enzyme concentration was the reported enzyme activity.
Target sequence in this assay (P25250 134-373): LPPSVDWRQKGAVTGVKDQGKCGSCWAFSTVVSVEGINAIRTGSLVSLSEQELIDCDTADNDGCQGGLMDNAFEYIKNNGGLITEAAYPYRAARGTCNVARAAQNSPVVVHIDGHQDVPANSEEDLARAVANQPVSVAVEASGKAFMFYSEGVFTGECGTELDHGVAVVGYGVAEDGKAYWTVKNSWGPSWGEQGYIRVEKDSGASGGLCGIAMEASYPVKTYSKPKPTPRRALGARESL

Assay [4] has as its target T1, ALV001. Put plainly: Stabilization of ALV001 in ex vivo postprandial gastric fluid by added antioxidants/reducing/chelating agents (chromogenic activity). Set-up: ALV001 is the proenzyme or zymogen for Endoprotease B (Isoform 2); made in house. The conditions noted are these: for stability of ALV001 activity with agent added (FIG. 6): 15 minute postprandial gastric fluid, 37° C., 1.5-45 minutes; for stabilization (preservation of activity) of ALV001 in ex vivo gastric fluid: summary statement, concentration not given. The protocol:
as §1
A control without MTG was also included.
Shown in FIG. 6, selected reducing agents were added at 5 mM to ex vivo postprandial gastric fluid that was obtained from a healthy volunteer 15 minutes after eating and was incubated at 37° C. The proenzyme ALV001 was added to the gastric fluid. Acetate buffer at pH 4.5 was used as a control, because ALV001 is fully activated under these conditions. Samples were taken to determine ALV001 activity after 1.5, 5, 10, 20, […].
Samples were taken at 1.5, 5, 10, 20, and 40 minutes.
Target sequence in this assay (P25250 29-373 limits assumed): as the sequence (P25250 29-373 limits assumed) above

Assay [5] has as its target T1, ALV001. Kind of assay: ALV001 activity under simulated postprandial gastric conditions with cysteine. Also on record: ALV001 is the proenzyme or zymogen for Endoprotease B (Isoform 2); made in house. The note with it: gluten-free meal chewed and spit into resting gastric fluid, ALV003 and varying levels of cysteine, simulated gastric acid secretion. The protocol:
A gluten-free meal was chewed and spit into resting gastric fluid. ALV003 and varying levels of cysteine were added at time 0 and the stability of ALV001 activity was tested by monitoring chromogenic enzyme activity over time. Gastric acid secretion was simulated throughout the experiment.
A gluten-free meal was chewed and spit into resting gastric fluid. ALV003 and varying levels of cysteine were added at time 0, and the stability of ALV001 activity was measured by monitoring chromogenic enzyme activity over time. Gastric acid secretion was simulated throughout the experiment.
Target sequence in this assay (P25250 29-373 limits assumed): as above

The target of assay [6] is T1, ALV001. Put plainly: ALV001 activity reconstituted in orange juice with or without sodium metabisulfite. The note with it: 3 mg/ml ALV001 in orange juice, 840 μM sodium metabisulfite. Set-up: ALV001 is the proenzyme or zymogen for Endoprotease B (Isoform 2); made in house. The protocol:
3 mg/ml ALV001 was reconstituted in orange juice with or without 840 μM sodium metabisulfite. Chromogenic enzyme activity was measured at the indicated timepoints to determine the relative amount of functional enzyme.
3 mg/ml ALV001 was reconstituted in orange juice with or without 840 μM sodium metabisulfite. Chromogenic enzyme activity was measured as described above, at the indicated timepoints, to determine the relative amount of functional enzyme, as shown in FIG. 13.
Target sequence in this assay (P25250 29-373 limits assumed): as above

The target in assay [7] is T1, ALV001. Kind of assay: Reversal of loss of enzyme activity: ALV003 pre-incubated in 15 minute postprandial gastric fluid, then MTG added. The note with it: 50 mM MTG, approximately 20 minutes after addition to pre-incubated ALV003 in 15 minute postprandial gastric fluid. Also on record: ALV001*(the active form of ALV001) is produced upon proteolytic cleavage of ALV001; made in house.
Target sequence in this assay (P25250 134-373): as the sequence (P25250 134-373) above

Turning to `O=S([O-])[O-].[Na+].[Na+]` [sodium sulfite], the “restoration of ALV001 enzyme activity” value at ALV001 [1] is listed as “partially restored the enzyme activity”. Also, the “concentration down to which the stabilizing effect persists” value on ALV001 [2] (postprandial gastric fluid (FIG. 8)) is listed as 0.05 mM. Also, the “stabilization of ALV001 (FIG. 8)” value on ALV001 [2] (sodium sulfite time course, postprandial gastric fluid) is “particularly effective”. The “stabilization of ALV001* in early postprandial gastric fluid” value (shortened to “stabilization of ALV001*”) on ALV001 [3] was “demonstrated to stabilize ALV001*”. Besides, on ALV001 [4] (agent at 5 mM), the “stability of ALV001 activity with agent added (FIG. 6)” value (“stability … (FIG. 6)” for short) was “most effective stabilization”. The “stabilization (preservation of activity) of ALV001 in ex vivo gastric fluid” value (from here on “stabilization … in ex vivo gastric fluid”) on ALV001 [4] is recorded as “particularly effective in stabilizing ALV001”.

`O=C1O[C@H]([C@@H](O)CO)C(O)=C1O` [ascorbic acid]: on ALV001 [3], the “stabilization of ALV001*” value is “did not stabilize the enzyme”. Besides, the “stability … (FIG. 6)” value at ALV001 [4] (agent at 5 mM) is listed as “rapidly inactivated”. Moreover, on ALV001 [4], the “stabilization … in ex vivo gastric fluid” value is “did not stabilize”.

Regarding `CC(=O)N[C@@H](CS)C(=O)O` [N-acetylcysteine], the “restoration of ALV001 enzyme activity” value at ALV001 [1] is “partially restored the enzyme activity”. Also, the “stabilization of ALV001*” value at ALV001 [3] is reported as “demonstrated to stabilize ALV001*”. The “stability … (FIG. 6)” value at ALV001 [4] (agent at 5 mM) is recorded as “Substantial improvements in stability”.

As for `O=S([O-])([O-])=S.[Na+].[Na+]` [sodium thiosulfate], the “stability of ALV001 in postprandial gastric fluid (FIG. 7)” value (shortened to “stability of ALV001 … (FIG. 7)”) on ALV001 [2] was “demonstrated to improve the stability of ALV001”. Also, the “stabilization of ALV001*” value on ALV001 [3] is reported as “demonstrated to stabilize ALV001*”.

On to `N[C@@H](CS)C(=O)O` [L-cysteine], for which the “stability of ALV001 activity under simulated postprandial gastric conditions (FIG. 14)” value on ALV001 [5] is listed as “stabilizes ALV001 activity”. Moreover, the “stabilization of ALV001*” value on ALV001 [3] is recorded as “demonstrated to stabilize ALV001*”. Also, the “stability … (FIG. 6)” value on ALV001 [4] (agent at 5 mM) is reported as “Substantial improvements in stability”.

Turning to `O=S([O-])S(=O)(=O)[O-].[Na+].[Na+]` [sodium metabisulfite], the “stabilization of ALV001 (FIG. 11)” value was “considerable stabilization” on ALV001 [2] (agent at 25 μM, postprandial gastric fluid) and “best stabilization” at ALV001 [2] (agent at 50 μM, postprandial gastric fluid). The “stability of ALV001” value at ALV001 [2] (agent at 50 μM) is given as “improved stability of ALV001”. On ALV001 [2], the “stability of ALV001 … (FIG. 7)” value is listed as “demonstrated to improve the stability of ALV001”. At ALV001 [6], the “stability of ALV001 activity in orange juice (FIG. 13)” value is on record as “stabilizes ALV001 activity; also recorded: increased stability”. At ALV001 [3], the “stabilization of ALV001*” value is listed as “demonstrated to stabilize ALV001*”. The “stabilization … in ex vivo gastric fluid” value at ALV001 [4] is given as “particularly effective in stabilizing ALV001”.

Turning to `O=C(O)CCCC[C@@H]1CCSS1` (racemic) [lipoic acid], the “stabilization of ALV001*” value at ALV001 [3] is given as “demonstrated to stabilize ALV001*”. The “stability of ALV001 … (FIG. 7)” value on ALV001 [4] (agent at 5 mM) is listed as “demonstrated to improve the stability of ALV001”.

In the case of `N[C@@H](CCS)C(=O)O` [homocysteine], the “stabilization of ALV001*” value at ALV001 [3] was “demonstrated to stabilize ALV001*”.

Take `O[C@H](CS)[C@H](O)CS` (racemic) [dithiothreitol]: at ALV001 [3], the “stabilization of ALV001*” value is “demonstrated to stabilize ALV001*”.

With `OCC(O)CS` (centres unmarked) [MTG, monothioglycerol], the “loss of enzymatic activity of ALV001 (FIG. 4)” value on ALV001 [2] (50 mM MTG, 15 minute postprandial gastric fluid) is “no loss”. In addition, the “rate of loss of enzymatic activity of ALV001 (FIG. 4)” value on ALV001 [2] (MTG 0.01 to 50 mM, 15 minute postprandial gastric fluid) was “decreased with increasing MTG concentrations”. At ALV001 [7], the “restoration of enzymatic activity of ALV001* (FIG. 5)” value was “nearly full enzymatic activity was restored”.

As for `Cl.O=C(O)CCP(CCC(=O)O)CCC(=O)O` [TCEP, tris(2-Carboxyethyl)phosphine hydrochloride], the “stabilization of ALV001*” value at ALV001 [3] was “demonstrated to stabilize ALV001*”.

On to `CSCC[C@H](N)C(=O)O` [L-methionine], for which the “stabilization of ALV001*” value on ALV001 [3] is “did not stabilize the enzyme”. For the same compound, the “stabilization … in ex vivo gastric fluid” value on ALV001 [4] is “did not stabilize”.

For `OCCS` [2-mercaptoethanol], the “stabilization of ALV001*” value on ALV001 [3] is on record as “demonstrated to stabilize ALV001*”.
